From patent publication US11236068B2, “Fused ring compounds” (Genentech, Inc., priority 2018, dated 2022)

Experiments:
K-Ras G12C [1] = molecular target: T1, K-Ras G12C (Homo sapiens (Human), UniProt P01116, G12C); assay: K-Ras G12C, SOS1, Raf RBD HTRF assay for inhibition of GTP exchange; assay type: biochemical; settings: 18 hours incubation with K-Ras G12C at room temperature, SOS1-mediated GTP exchange
Procedure: K-Ras G12C, SOS1, Raf RBD Homogeneous Time Resolved Fluorescence (HTRF) Assay for Inhibition of GTP Exchange
After 18 hours at room temperature, the SOS1 GTP exchange factor (1.67 nM during exchange, 1.25 nM final) was added to initiate nucleotide exchange to GTP (200 μM during exchange, 150 µM final). The level of GTP exchange was assessed by addition of a Ras binding domain derived from C-Raf and the HTRF detection antibodies Tb-anti-FLAG and D2-anti-his (Cis-Bio) at 50 nM, 1 nM and 12.5 nM, respectively. After 2 hours, the ratio of 665 nm to 615 nm emission with 320 nm excitation was measured on an Envision plate reader (Perkin Elmer).
The final reaction volume was 20l in a ProxiPlate-384F Plus (Perkin Elmer), in buffer containing 20 mM HEPES, 150 mM NaCl, 1 mM MgCl2, 0.1% BSA, 0.03% Tween-20 and 1 mM DTT. […] HTRF data are presented below in Table 3.
Target sequence in this assay (P01116 other isoform, or with tags, fused parts or gaps G12C): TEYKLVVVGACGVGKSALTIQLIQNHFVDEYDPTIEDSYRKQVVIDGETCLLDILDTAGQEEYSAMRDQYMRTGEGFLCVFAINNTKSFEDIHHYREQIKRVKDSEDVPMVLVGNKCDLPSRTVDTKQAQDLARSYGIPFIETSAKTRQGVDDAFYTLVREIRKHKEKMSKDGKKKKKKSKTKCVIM

K-Ras G12C [2] = molecular target: T1, K-Ras G12C; assay: Western blot assay for in cell alkylation of K-Ras G12C (HCC1171 cells); assay type: cell-based; settings: 18 hours at 37° C., 7 point dose response
Target sequence in this assay (P01116 other isoform, or with tags, fused parts or gaps G12C): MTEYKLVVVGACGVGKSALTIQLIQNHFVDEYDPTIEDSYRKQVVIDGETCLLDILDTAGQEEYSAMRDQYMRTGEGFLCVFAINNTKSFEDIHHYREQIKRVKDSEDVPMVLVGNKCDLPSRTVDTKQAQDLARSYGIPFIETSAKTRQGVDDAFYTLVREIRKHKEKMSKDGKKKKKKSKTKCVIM

C=CC(=O)N1CCN(c2ncnc3cc(-c4nc(N)ccc4C(F)(F)F)c(S(C)(=O)=O)cc23)CC1 [Example 28, 1-[4-[7-[6-amino-3-(trifluoromethyl)-2-pyridyl]-6-methylsulfonyl-quinazolin-4-yl]piperazin-1-yl]prop-2-en-1-one]
IC50 (K-Ras G12C [1]): 540 nM | EC50 (K-Ras G12C [2]): 7800 nM

C=CC(=O)N1CCN(c2ncnc3cc(-c4nc(N)cc5cccc(F)c45)c(Cl)cc23)CC1 [Example 48, 1-[4-[7-(3-amino-8-fluoroisoquinoline-1-yl)-6-chloroquinazolin-4-yl]piperazin-1-yl]prop-2-en-1-one]
IC50 (K-Ras G12C [1]): 32 nM | EC50 (K-Ras G12C [2]): 140 nM
